From patent US20170121315A1, “HETEROBICYCLICALLY SUBSTITUTED 4-OXOBUTANE ACID DERIVATIVES AND USE THEREOF” (priority 2014, published 2017) come the findings set out here.

Type in all cases: biochemical
The target of one test is T1, MMP-9 (Homo sapiens, UniProt P14780).
T1 construct: purchased R&D Systems 911-MP
The experiment in a line: In vitro MMP-9 inhibition test. Particulars: human MMP-9. Put shortly:
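Recombinant MMP-9, APMA-activated, at ~0.1 nM final in 50 mM Tris/HCl pH 7.5, 10 mM CaCl2, 150 mM NaCl, 0.05% Brij-35, with compound in DMSO (e.g. 1 nM–30 μM). Reaction started with 10 μM Mca-PLGL-Dpa(Dnp)-AR-NH2, and fluorescence (ex 320/em 410 nm) was followed e.g. 120 min at 32 °C. IC50 is the concentration giving 50% signal.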

The target of a further test is T2, MMP-2 (Homo sapiens, UniProt P08253).
T2 construct: purchased R&D Systems 902-MP
T2 sequence (P08253 110-660): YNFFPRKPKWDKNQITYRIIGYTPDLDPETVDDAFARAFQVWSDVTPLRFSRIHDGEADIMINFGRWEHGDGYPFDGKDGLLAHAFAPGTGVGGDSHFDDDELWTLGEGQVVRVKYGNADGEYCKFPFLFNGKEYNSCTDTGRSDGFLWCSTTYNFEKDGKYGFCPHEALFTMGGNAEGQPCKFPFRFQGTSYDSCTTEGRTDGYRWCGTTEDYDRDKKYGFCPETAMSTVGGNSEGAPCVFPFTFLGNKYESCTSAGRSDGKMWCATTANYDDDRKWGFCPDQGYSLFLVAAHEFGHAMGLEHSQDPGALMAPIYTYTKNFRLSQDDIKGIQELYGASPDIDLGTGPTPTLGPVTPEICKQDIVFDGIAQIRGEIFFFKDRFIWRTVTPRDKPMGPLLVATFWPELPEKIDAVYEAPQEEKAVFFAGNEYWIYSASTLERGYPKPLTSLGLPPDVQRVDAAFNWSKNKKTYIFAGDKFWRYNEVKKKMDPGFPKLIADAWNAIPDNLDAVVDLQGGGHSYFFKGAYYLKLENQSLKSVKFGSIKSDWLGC
As to the kind of experiment: In vitro MMP-2 inhibition test. The conditions noted are these: human MMP-2. Put shortly:
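APMA-activated recombinant MMP-2 (final e.g. 2 nM) with compound (e.g. 1 nM to 30 μM) in Tris/HCl pH 7.5 buffer with CaCl2, NaCl, Brij-35. Reaction started with quenched Mca-PLGL-Dpa(Dnp)-AR-NH2 substrate (final e.g. 10 μM); fluorescence (ex 320/em 410 nm) followed e.g. 120 min at 32 °C; IC50 at 50% signal.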

A further test concerns the target T3, MMP-7 (Homo sapiens, UniProt P09237).
T3 construct: purchased R&D Systems 907-MP
T3 sequence (P09237 95-267): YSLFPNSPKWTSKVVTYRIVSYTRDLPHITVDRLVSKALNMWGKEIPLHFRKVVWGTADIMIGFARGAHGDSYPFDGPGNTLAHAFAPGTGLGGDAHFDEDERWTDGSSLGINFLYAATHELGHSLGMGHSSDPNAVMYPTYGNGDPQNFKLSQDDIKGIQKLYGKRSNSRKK
The experiment in a line: In vitro MMP-7 inhibition test. Particulars: human MMP-7.

In a further test the target is T4, MMP-13 (Homo sapiens, UniProt P45452).
T4 construct: purchased R&D Systems 511-MP
As to the kind of experiment: In vitro MMP-13 inhibition test. Particulars: human MMP-13. In short, it runs like this: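 APMA-activated recombinant enzyme (e.g. 0.1 nM final) was tested with compounds (e.g. 1 nM–30 µM, DMSO) in 50 mM Tris/HCl pH 7.5, 10 mM CaCl2, 150 mM NaCl, 0.05% Brij-35. Mca-PLGL-Dpa(Dnp)-AR-NH2 was the substrate (e.g. 10 µM). Fluorescence (ex 320/em 410 nm) was followed e.g. 120 min at 32 °C, and IC50 was read at 50% signal.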

T1 sequence (P14780 107-707 limits assumed): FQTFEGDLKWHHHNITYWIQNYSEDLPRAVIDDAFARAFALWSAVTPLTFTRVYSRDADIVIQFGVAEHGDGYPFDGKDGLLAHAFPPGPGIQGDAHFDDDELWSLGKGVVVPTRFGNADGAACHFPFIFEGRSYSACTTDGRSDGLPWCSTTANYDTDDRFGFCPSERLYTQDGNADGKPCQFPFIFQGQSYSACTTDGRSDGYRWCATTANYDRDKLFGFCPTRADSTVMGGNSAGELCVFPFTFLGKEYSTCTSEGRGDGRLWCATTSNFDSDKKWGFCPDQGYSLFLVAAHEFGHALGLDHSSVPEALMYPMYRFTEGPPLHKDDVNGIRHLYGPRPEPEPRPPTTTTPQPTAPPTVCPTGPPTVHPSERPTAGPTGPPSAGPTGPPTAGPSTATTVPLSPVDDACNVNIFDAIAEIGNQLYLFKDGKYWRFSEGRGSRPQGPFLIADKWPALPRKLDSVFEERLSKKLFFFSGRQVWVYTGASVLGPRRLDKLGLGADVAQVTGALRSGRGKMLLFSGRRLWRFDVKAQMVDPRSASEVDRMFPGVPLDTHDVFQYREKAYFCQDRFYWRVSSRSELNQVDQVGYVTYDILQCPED

Take `CCCCCOc1ccc2c(C(=O)CC(CCn3nnc4ccccc4c3=O)C(=O)O)noc2c1` (racemic) [Example 140, (+/−)-4-Oxo-2-[2-(4-oxo-1,2,3-benzotriazin-3(4H)-yl)ethyl]-4-[6-(pentyloxy)-1,2-benzoxazol-3-yl]butanoic acid]: the half-maximal inhibitory concentration (IC50) was 43 nM at MMP-9, 95 nM on MMP-2, more than 40000 nM against MMP-7 and 330 nM on MMP-13.
Take `O=C(CC(CCn1nnc2ccccc2c1=O)C(=O)O)c1cc2cc(OCCC3CCCC3)ccc2o1` (racemic) [Example 7, (+/−)-4-[5-(2-Cyclopentylethoxy)-1-benzofur-2-yl]-4-oxo-2-[2-(4-oxo-1,2,3-benzotriazin-3(4H)-yl)ethyl]butanoic acid]: the IC50 was 5000 nM against MMP-9, 920 nM against MMP-2, more than 40000 nM against MMP-7 and 5000 nM against MMP-13.
With `O=C(CC(CCn1nnc2ccccc2c1=O)C(=O)O)c1noc2cc(OCc3cccnc3)ccc12` (racemic) [Example 148, (+/−)-4-Oxo-2-[2-(4-oxo-1,2,3-benzotriazin-3(4H)-yl)ethyl]-4-[6-(pyridin-3-ylmethoxy)-1,2-benzoxazol-3-yl]butanoic acid], the IC50 on MMP-9 is 910 nM; against MMP-2, 270 nM; against MMP-7, more than 40000 nM; against MMP-13, 500 nM.
The like results for `O=C(CC(CCn1nnc2ccccc2c1=O)C(=O)O)c1cc2cc(OCC3CCOCC3)ccc2o1` (racemic) [Example 5, (+/−)-4-Oxo-2-[2-(4-oxo-1,2,3-benzotriazin-3(4H)-yl)ethyl]-4-[5-(tetrahydro-2H-pyran-4-ylmethoxy)-1-benzofur-2-yl]butanoic acid] were, in that order, 9100 nM, 5000 nM, more than 40000 nM and 13000 nM.
Regarding `O=C(CC(CCn1nnc2ccccc2c1=O)C(=O)O)c1coc2cc(OCC3CCCCC3)ccc12` (single isomer, unassigned; (+)) [Example 82, (+)-4-[6-(Cyclohexylmethoxy)-1-benzofur-3-yl]-4-oxo-2-[2-(4-oxo-1,2,3-benzotriazin-3(4H)-yl)ethyl]butanoic acid], the IC50 is 94 nM on MMP-9, 170 nM against MMP-2, more than 40000 nM on MMP-7 and 1300 nM at MMP-13.
As to `O=C(CC(CCn1nnc2ccccc2c1=O)C(=O)O)c1cc2ccc(OCCc3ccccc3)cc2o1` (racemic) [Example 73, (+/−)-4-Oxo-2-[2-(4-oxo-1,2,3-benzotriazin-3(4H)-yl)ethyl]-4-[6-(2-phenylethoxy)-1-benzofur-2-yl]butanoic acid], the IC50 against MMP-9 was 2200 nM; on MMP-2, 1300 nM; at MMP-7, more than 40000 nM; on MMP-13, 4700 nM.
The like results for `O=C(CC(CCn1nnc2ccccc2c1=O)C(=O)O)c1cc2cc(OCCCC(F)(F)F)ccc2o1` (single isomer, unassigned; enantiomer 2) [Example 13, (+)-4-Oxo-2-[2-(4-oxo-1,2,3-benzotriazin-3(4H)-yl)ethyl]-4-[5-(4,4,4-trifluorobutoxy)-1-benzofur-2-yl]butanoic acid (enantiomer 2)] were, in that order, 3800 nM, 1300 nM, more than 40000 nM and 4600 nM.
The corresponding values for `O=C(CC(CCn1nnc2ccccc2c1=O)C(=O)O)c1noc2cc(OCC3CC3)ccc12` (racemic) [Example 150, (+/−)-4-[6-(Cyclopropylmethoxy)-1,2-benzoxazol-3-yl]-4-oxo-2-[2-(4-oxo-1,2,3-benzotriazin-3(4H)-yl)ethyl]butanoic acid] are 650 nM, 510 nM, 29000 nM and 2400 nM.
The corresponding values for `O=C(CC(CCn1nnc2ccccc2c1=O)C(=O)O)c1onc2cc(OCc3ccccc3)ccc12` (racemic) [Example 156, (+/−)-4-[6-(Benzyloxy)-2,1-benzoxazol-3-yl]-4-oxo-2-[2-(4-oxo-1,2,3-benzotriazin-3(4H)-yl)ethyl]butanoic acid] are 170 nM, 1400 nM, more than 40000 nM and 2200 nM.
For `O=C(CC(CCn1nnc2ccccc2c1=O)C(=O)O)c1coc2cc(OCCC3CCCC3)ccc12` (racemic) [Example 75, (+/−)-4-[6-(2-Cyclopentylethoxy)-1-benzofur-3-yl]-4-oxo-2-[2-(4-oxo-1,2,3-benzotriazin-3(4H)-yl)ethyl]butanoic acid], the IC50 at MMP-9 is 450 nM; at MMP-2, 390 nM; at MMP-7 it was more than 40000 nM; against MMP-13, 3800 nM.
Turning to `O=C(CC(CCn1nnc2ccccc2c1=O)C(=O)O)c1cc2cc(OCCC3CCOCC3)ccc2o1` (racemic) [Example 6, (+/−)-4-Oxo-2-[2-(4-oxo-1,2,3-benzotriazin-3(4H)-yl)ethyl]-4-{5-[2-(tetrahydro-2H-pyran-4-yl)ethoxy]-1-benzofur-2-yl}butanoic acid], the IC50 on MMP-9 was 3400 nM; on MMP-2, 430 nM; on MMP-7, more than 40000 nM; against MMP-13 it was 730 nM.
The like results for `O=C(CC(CCn1nnc2ccccc2c1=O)C(=O)O)c1cc2cc(OCCc3ccccc3Cl)ccc2o1` (racemic) [Example 1, (+/−)-4-{5-[2-(2-Chlorophenyl)ethoxy]-1-benzofur-2-yl}-4-oxo-2-[2-(4-oxo-1,2,3-benzotriazin-3(4H)-yl)ethyl]butanoic acid] were, in that order, more than 40000 nM, more than 40000 nM, more than 40000 nM and more than 40000 nM.
With `O=C(CC(CCn1nnc2ccc(C(F)(F)F)cc2c1=O)C(=O)O)c1noc2cc(OCc3ccccc3)ccc12` (racemic) [Example 154, (+/−)-4-[6-(Benzyloxy)-1,2-benzoxazol-3-yl]-4-oxo-2-{2-[4-oxo-6-(trifluoromethyl)-1,2,3-benzotriazin-3(4H)-yl]ethyl}butanoic acid], the IC50 at MMP-9 amounted to 250 nM; on MMP-2 it was 5600 nM; against MMP-7, 18000 nM; against MMP-13, 2300 nM.
The corresponding values for `Cc1cccc(COc2ccc3oc(C(=O)CC(CCn4nnc5ccccc5c4=O)C(=O)O)cc3c2)c1` (racemic) [Example 51, (+/−)-4-{5-[(3-Methylbenzyl)oxy]-1-benzofur-2-yl}-4-oxo-2-[2-(4-oxo-1,2,3-benzotriazin-3(4H)-yl)ethyl]butanoic acid] are 30000 nM, 19000 nM, 35000 nM and 11000 nM.
Take `CCCCCOc1ccc2c(C(=O)CC(CCn3nnc4ccccc4c3=O)C(=O)O)coc2c1` (racemic) [Example 89, (+/−)-4-Oxo-2-[2-(4-oxo-1,2,3-benzotriazin-3(4H)-yl)ethyl]-4-[6-(pentyloxy)-1-benzofur-3-yl]butanoic acid]: the IC50 at MMP-9 was 230 nM; against MMP-2 it was 290 nM; against MMP-7, more than 40000 nM; at MMP-13, 670 nM.
Regarding `O=C(CC(CCn1nnc2ccccc2c1=O)C(=O)O)c1cc2cc(OCc3ccccc3)ccc2o1` (single isomer, unassigned; (+)) [Example 30, (+)-4-[5-(Benzyloxy)-1-benzofur-2-yl]-4-oxo-2-[2-(4-oxo-1,2,3-benzotriazin-3(4H)-yl)ethyl]butanoic acid], the IC50 against MMP-9 was 27000 nM; at MMP-2 it was 6100 nM; against MMP-7, more than 40000 nM; on MMP-13, 10000 nM.
